Data published in US10899755B2, “Benzothiazole compounds and uses thereof” (Incyte Corporation, priority 2018, dated 2021).

Assays:
[1] = target: HPK1; test: HPK1 Kinase Binding Assay; conditions: active HPK1 (SignalChem M23-11G), tracer 222, LanthaScreen Eu-Anti GST antibody, one hour incubation at 25° C.
Procedure: (§1) A stock solution of 1 mM test compound was prepared in DMSO. The compound plate was prepared by 3-fold and 11-point serial dilutions. 0.1 μL of the compound in DMSO was transferred from the compound plate to the white 384 well polystyrene plates. The assay buffer contained 50 mM HEPES, pH 7.5, 0.01% Tween-20, 5 mM MgCl2, 0.01% BSA, and 5 mM DTT. 5 μL of 4 nM active HPK1 (SignalChem M23-11G) prepared in the buffer was added to the plate. The enzyme concentration given was based on the given stock concentration reported by the vender. […] After one hour incubation at 25° C., the plates were read on a PHERAstar FS plate reader (BMG Labtech). Ki values were determined.

[2] = target: HPK1 (Homo sapiens, UniProt Q92918); test: HPK1 Kinase Binding Assay; conditions: active HPK1 (SignalChem M23-11G), tracer 222, LanthaScreen Eu-Anti GST antibody, one hour incubation at 25° C.
Sequence of HPK1 (Homo sapiens, UniProt Q92918) (Q92918 whole entry, looked up): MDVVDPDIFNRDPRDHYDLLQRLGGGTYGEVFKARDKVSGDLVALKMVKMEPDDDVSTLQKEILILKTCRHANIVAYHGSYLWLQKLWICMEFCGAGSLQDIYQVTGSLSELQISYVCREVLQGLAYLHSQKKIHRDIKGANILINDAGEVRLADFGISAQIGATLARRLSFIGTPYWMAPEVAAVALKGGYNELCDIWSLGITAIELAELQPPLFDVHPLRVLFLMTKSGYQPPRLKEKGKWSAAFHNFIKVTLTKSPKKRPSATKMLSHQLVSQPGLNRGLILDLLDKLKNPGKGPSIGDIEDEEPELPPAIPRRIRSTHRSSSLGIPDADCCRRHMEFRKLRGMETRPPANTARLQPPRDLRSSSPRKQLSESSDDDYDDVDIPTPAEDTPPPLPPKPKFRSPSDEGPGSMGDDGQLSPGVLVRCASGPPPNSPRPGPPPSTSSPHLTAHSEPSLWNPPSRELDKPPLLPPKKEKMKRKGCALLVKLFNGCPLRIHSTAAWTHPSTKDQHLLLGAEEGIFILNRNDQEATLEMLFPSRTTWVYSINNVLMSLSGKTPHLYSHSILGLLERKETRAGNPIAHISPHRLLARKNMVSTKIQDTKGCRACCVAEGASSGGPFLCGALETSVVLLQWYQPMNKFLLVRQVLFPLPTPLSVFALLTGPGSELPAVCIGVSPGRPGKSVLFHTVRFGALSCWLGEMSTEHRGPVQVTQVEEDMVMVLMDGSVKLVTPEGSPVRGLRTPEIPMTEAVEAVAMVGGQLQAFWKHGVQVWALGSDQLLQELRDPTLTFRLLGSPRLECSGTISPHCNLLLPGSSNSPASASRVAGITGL
Procedure: as §1

## Cc1nc2c(N3CC[C@@H](N)C3)c(NC(=O)c3ccnc(-c4c(F)cccc4C(F)(F)F)n3)ccc2s1 [Example 3, (R)—N-(4-(3-Aminopyrrolidin-1-yl)-2-methylbenzo[d]thiazol-5-yl)-2-(2-fluoro-6-(trifluoromethyl)phenyl)pyrimidine-4-carboxamide]
[1]
  Ki: < 100 nM

## COc1cccc(C(N)=O)c1-c1nccc(C(=O)Nc2ccc3sc(C)nc3c2N2C[C@H](N)C[C@H]2CO)n1 [Example 14, N-(4-((2S,4R)-4-Amino-2-(hydroxymethyl)pyrrolidin-1-yl)-2-methylbenzo[d]thiazol-5-yl)-2-(2-carbamoyl-6-methoxyphenyl)pyrimidine-4-carboxamide]
[2]
  Ki: 100 to 500 nM

## COc1ccc(-c2cnn(C)c2)c(F)c1-c1nccc(C(=O)Nc2ccc3sc(C)nc3c2N2C[C@H](N)C[C@H]2CO)n1 [Example 15, N-(4-((2S,4R)-4-Amino-2-(hydroxymethyl)pyrrolidin-1-yl)-2-methylbenzo[d]thiazol-5-yl)-2-(2-fluoro-6-methoxy-3-(1-methyl-1H-pyrazol-4-yl)phenyl)pyrimidine-4-carboxamide]
[2]
  Ki: < 100 nM

## COc1ccc(F)c(F)c1-c1nccc(C(=O)Nc2ccc3sc(C)nc3c2N2C[C@H](N)C[C@H]2CO)n1 [Example 16, N-(4-((2S,4R)-4-Amino-2-(hydroxymethyl)pyrrolidin-1-yl)-2-methylbenzo[d]thiazol-5-yl)-2-(2,3-difluoro-6-methoxyphenyl)pyrimidine-4-carboxamide]
[2]
  Ki: < 100 nM

## [2H]C([2H])([2H])Oc1ccc(C#N)c(F)c1-c1nccc(C(=O)Nc2ccc3sc(C)nc3c2N2C[C@H](N)C[C@H]2CO)n1 [Example 17, N-(4-((2S,4R)-4-Amino-2-(hydroxymethyl)pyrrolidin-1-yl)-2-methylbenzo[d]thiazol-5-yl)-2-(3-cyano-2-fluoro-6-(methoxy-d3)phenyl)pyrimidine-4-carboxamide]
[2]
  Ki: < 100 nM

## COc1cccc(F)c1-c1nccc(C(=O)Nc2ccc3sc(C)nc3c2N2C[C@H](NC(C)C)C[C@H]2CO)n1 [Example 18, 2-(2-Fluoro-6-methoxyphenyl)-N-(4((2S,4R)-2-(hydroxymethyl)-4-(isopropylamino)pyrrolidin-1-yl)-2-methylbenzo[d]thiazol-5-yl)pyrimidine-4-carboxamide]
[2]
  Ki: < 100 nM

## COc1cccc(F)c1-c1nccc(C(=O)Nc2ccc3sc(C)nc3c2N2C[C@H](NC3CCOCC3)C[C@H]2CO)n1 [Example 19, 2-(2-Fluoro-6-methoxyphenyl)-N-(4((2S,4R)-2-(hydroxymethyl)-4-(tetrahydro-2H-pyran-4-ylamino)pyrrolidin-1-yl)-2-methylbenzo[d]thiazol-5-yl)pyrimidine-4-carboxamide]
[2]
  Ki: < 100 nM

## COc1cccc(F)c1-c1nccc(C(=O)Nc2ccc3sc(C)nc3c2N2C[C@H](NC(C)=O)C[C@H]2CO)n1 [Example 20, N-(4-((2S,4R)-4-Acetamido-2-(hydroxymethyl)pyrrolidin-1-yl)-2-methylbenzo[d]thiazol-5-yl)-2-(2-fluoro-6-methoxyphenyl)pyrimidine-4-carboxamide]
[2]
  Ki: < 100 nM

## COc1cccc(F)c1-c1nccc(C(=O)Nc2ccc3sc(C)nc3c2N2C[C@H](NS(C)(=O)=O)C[C@H]2CO)n1 [Example 21, 2-(2-Fluoro-6-methoxyphenyl)-N-(4((2S,4R)-2-(hydroxymethyl)-4-(methylsulfonamido)pyrrolidin-1-yl)-2-methylbenzo[d]thiazol-5-yl)pyrimidine-4-carboxamide]
[2]
  Ki: < 100 nM

## COc1cccc(F)c1-c1nccc(C(=O)Nc2ccc3sc(C)nc3c2N2C[C@H]3C[C@@H]2CO3)n1 [Example 22, N-(4-((1R,4R)-2-Oxa-5-azabicyclo[2.2.1]heptan-5-yl)-2-methylbenzo[d]thiazol-5-yl)-2-(2-fluoro-6-methoxyphenyl)pyrimidine-4-carboxamide]
[2]
  Ki: < 100 nM

## COc1cccc(F)c1-c1nccc(C(=O)Nc2ccc3sc(C)nc3c2N2C[C@@H](N)C[C@H]2CO)n1 [Example 23, N-(4-((2S,4S)-4-amino-2-(hydroxymethyl)pyrrolidin-1-yl)-2-methylbenzo[d]thiazol-5-yl)-2-(2-fluoro-6-methoxyphenyl)pyrimidine-4-carboxamide]
[2]
  Ki: < 100 nM

## COc1cccc(F)c1-c1nccc(C(=O)Nc2ccc3sc(C)nc3c2N(C)CC2CCN(C)C2)n1 (centres unmarked) [Example 24, 2-(2-Fluoro-6-methoxyphenyl)-N-(2-methyl-4-(methyl((1-methylpyrrolidin-3-yl)methyl)amino)benzo[d]thiazol-5-yl)pyrimidine-4-carboxamide]
[2]
  Ki: < 100 nM

## COc1cccc(F)c1-c1nccc(C(=O)Nc2ccc3sc(C)nc3c2N2C[C@H]3C[C@@H]2CN3C(=O)N2CCOCC2)n1 [Example 25, 2-(2-Fluoro-6-methoxyphenyl)-N-(2-methyl-4((1R,4R)-5-(morpholine-4-carbonyl)-2,5-diazabicyclo[2.2.1]heptan-2-yl)benzo[d]thiazol-5-yl)pyrimidine-4-carboxamide]
[2]
  Ki: < 100 nM

## COc1cccc(F)c1-c1nccc(C(=O)Nc2ccc3sc(C)nc3c2N2CCOC[C@@H]2CN)n1 [Example 26, (S)—N-(4-(3-(aminomethyl)morpholino)-2-methylbenzo[d]thiazol-5-yl)-2-(2-fluoro-6-methoxyphenyl)pyrimidine-4-carboxamide]
[2]
  Ki: < 100 nM

## COc1cccc(F)c1-c1nccc(C(=O)Nc2ccc3sc(C)nc3c2N(C)[C@@H]2CCCNC2)n1 [Example 27]
[2]
  Ki: < 100 nM

## COc1cccc(F)c1-c1nccc(C(=O)Nc2ccc3sc(C)nc3c2N2CCC3CCNCC32)n1 (centres unmarked) [Example 28, 2-(2-Fluoro-6-methoxyphenyl)-N-(2-methyl-4-(octahydro-1H-pyrrolo[2,3-c]pyridin-1-yl)benzo[d]thiazol-5-yl)pyrimidine-4-carboxamide]
[2]
  Ki: < 100 nM

## COc1cccc(F)c1-c1nccc(C(=O)Nc2ccc3sc(C)nc3c2N2CCC(c3ccccn3)C2)n1 (centres unmarked) [Example 29, 2-(2-Fluoro-6-methoxyphenyl)-N-(2-methyl-4-(3-(pyridin-2-yl)pyrrolidin-1-yl)benzo[d]thiazol-5-yl)pyrimidine-4-carboxamide]
[2]
  Ki: < 100 nM

## COc1cccc(F)c1-c1nccc(C(=O)Nc2ccc3sc(C)nc3c2N2CC(F)(F)C[C@H]2CO)n1 [Example 30, (S)—N-(4-(4,4-Difluoro-2-(hydroxymethyl)pyrrolidin-1-yl)-2-methylbenzo[d]thiazol-5-yl)-2-(2-fluoro-6-methoxyphenyl)pyrimidine-4-carboxamide]
[2]
  Ki: < 100 nM

## Cc1nc2c(N3C[C@@H]4CC[C@H]3CN4)c(NC(=O)c3ccnc(-c4c(F)cccc4F)n3)ccc2s1 [Example 31, N-(4-((1S,4S)-2,5-Diazabicyclo[2.2.2]octan-2-yl)-2-methylbenzo[d]thiazol-5-yl)-2-(2,6-difluorophenyl)pyrimidine-4-carboxamide]
[2]
  Ki: < 100 nM

## COc1cccc(F)c1-c1nccc(C(=O)Nc2ccc3sc(CN(C)C)nc3c2N2C[C@H](N)C[C@H]2CO)n1 [Example 32, N-(4-((2S,4R)-4-amino-2-(hydroxymethyl)pyrrolidin-1-yl)-2-((dimethylamino)methyl)benzo[d]thiazol-5-yl)-2-(2-fluoro-6-methoxyphenyl)pyrimidine-4-carboxamide]
[2]
  Ki: < 100 nM
